For one assay, the target named is T1, Interstitial collagenase (Homo sapiens, UniProt P03956).
T1 sequence (P03956 whole entry): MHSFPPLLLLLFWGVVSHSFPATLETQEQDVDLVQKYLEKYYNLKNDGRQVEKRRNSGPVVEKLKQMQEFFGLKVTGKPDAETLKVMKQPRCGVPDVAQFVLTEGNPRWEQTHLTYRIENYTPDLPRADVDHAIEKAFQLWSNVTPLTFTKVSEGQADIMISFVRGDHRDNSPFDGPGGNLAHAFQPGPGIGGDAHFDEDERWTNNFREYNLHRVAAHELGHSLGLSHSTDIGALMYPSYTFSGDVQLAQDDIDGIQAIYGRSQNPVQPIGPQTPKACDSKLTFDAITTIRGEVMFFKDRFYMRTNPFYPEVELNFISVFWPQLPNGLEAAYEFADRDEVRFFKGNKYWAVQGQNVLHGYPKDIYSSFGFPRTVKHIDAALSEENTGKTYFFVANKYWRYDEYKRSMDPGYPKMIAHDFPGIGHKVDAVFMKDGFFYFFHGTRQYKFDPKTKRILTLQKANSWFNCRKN
Kind of assay: Inhibition of Matrix metalloprotease-1.

Another assay addresses Collagenase 3 (Homo sapiens, UniProt P45452). In words: Inhibition of Matrix metalloprotease-13.
The target of assay [1] is Disintegrin and metalloproteinase domain-containing protein 17 (Sus scrofa, UniProt O77636). In words: Inhibition of porcine Tumor necrosis factor alpha converting enzyme.
Chain of Disintegrin and metalloproteinase domain-containing protein 17 (O77636 whole entry, the tested form may be a part): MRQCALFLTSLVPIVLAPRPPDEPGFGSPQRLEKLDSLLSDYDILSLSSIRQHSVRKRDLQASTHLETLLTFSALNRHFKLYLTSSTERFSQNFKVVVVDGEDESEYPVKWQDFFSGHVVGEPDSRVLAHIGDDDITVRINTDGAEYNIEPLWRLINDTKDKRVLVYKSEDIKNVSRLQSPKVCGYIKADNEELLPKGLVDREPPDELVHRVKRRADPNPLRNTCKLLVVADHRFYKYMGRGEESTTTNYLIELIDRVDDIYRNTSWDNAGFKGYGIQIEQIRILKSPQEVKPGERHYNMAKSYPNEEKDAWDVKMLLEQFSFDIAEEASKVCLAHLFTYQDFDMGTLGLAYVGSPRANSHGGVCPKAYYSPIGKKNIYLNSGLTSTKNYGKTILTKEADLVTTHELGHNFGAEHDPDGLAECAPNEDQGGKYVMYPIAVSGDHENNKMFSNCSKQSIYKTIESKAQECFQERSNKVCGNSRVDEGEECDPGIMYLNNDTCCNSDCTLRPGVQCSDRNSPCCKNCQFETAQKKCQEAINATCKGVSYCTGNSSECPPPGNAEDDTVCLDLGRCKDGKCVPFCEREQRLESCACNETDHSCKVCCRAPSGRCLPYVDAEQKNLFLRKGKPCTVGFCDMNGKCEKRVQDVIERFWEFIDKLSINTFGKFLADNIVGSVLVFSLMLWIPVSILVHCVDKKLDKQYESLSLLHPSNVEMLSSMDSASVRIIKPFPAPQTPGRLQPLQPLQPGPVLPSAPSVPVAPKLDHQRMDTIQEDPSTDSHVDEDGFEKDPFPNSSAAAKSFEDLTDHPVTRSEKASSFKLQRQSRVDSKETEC
Assay [2] has as its target Matrix metalloproteinase-9 (Homo sapiens, UniProt P14780). In words: Inhibition of Matrix metalloprotease-9.
Assay [3] deals with T2, Interstitial collagenase (Homo sapiens) (UniProt P03956).
T2 sequence (whole entry): T1 sequence (P03956 whole entry)
Kind of assay: Inhibition of Matrix metalloprotease-1 at 10 uM.

pIC50: −log10 of the molar value.

Chain of Matrix metalloproteinase-9 (P14780 whole entry): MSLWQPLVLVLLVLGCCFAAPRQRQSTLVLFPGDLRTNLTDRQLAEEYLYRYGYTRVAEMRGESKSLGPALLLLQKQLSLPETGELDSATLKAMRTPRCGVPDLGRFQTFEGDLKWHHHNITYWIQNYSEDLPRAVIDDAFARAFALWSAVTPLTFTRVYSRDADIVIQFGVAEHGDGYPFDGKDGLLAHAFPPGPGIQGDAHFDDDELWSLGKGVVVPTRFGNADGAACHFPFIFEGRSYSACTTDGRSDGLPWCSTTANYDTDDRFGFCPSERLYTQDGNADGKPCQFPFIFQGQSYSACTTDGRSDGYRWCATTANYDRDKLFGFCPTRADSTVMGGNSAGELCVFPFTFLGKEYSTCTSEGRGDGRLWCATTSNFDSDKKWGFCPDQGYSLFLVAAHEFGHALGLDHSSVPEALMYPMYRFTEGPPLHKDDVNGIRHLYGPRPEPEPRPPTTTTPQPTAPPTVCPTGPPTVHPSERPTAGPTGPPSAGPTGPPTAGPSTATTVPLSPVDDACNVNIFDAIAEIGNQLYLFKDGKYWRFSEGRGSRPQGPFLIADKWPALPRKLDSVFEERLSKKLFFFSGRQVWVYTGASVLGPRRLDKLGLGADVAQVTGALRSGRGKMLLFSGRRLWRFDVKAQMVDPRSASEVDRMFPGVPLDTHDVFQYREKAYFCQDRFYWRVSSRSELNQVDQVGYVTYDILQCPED

For orientation: pIC50 means the IC50 on a negative log10 scale, so that one unit is a factor of ten. Low readings indicate a high IC50, high ones a low IC50. Take `CCCCOc1ccc(S(=O)(=O)N(C)c2c(C)cc(Br)cc2C(=O)NO)cc1`: the pIC50 on Interstitial collagenase is 5.60; against Collagenase 3, 7.17; in assay [1] it was 7.17; in assay [2], 7.68.

With `C#CCOc1ccc(S(=O)(=O)N(C)c2c(C)cc(Br)cc2C(=O)NO)cc1`, the pIC50 in assay [1] was 7.96.

As usually defined, the inhibition is the share of the control response that was lost under treatment. `CCCCC#CCOc1ccc(S(=O)(=O)N(C)c2c(C)cc(Br)cc2C(=O)NO)cc1` registered an inhibition in assay [3] of 53%.

(Values after ChEMBL document CHEMBL1135288, “Anthranilate sulfonamide hydroxamate TACE inhibitors. Part 1: Structure-based design of novel acetylenic P1' groups” (Bioorg Med Chem Lett, 2002).)
